Results taken from PubChem BioAssay (NCI).
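Compound exposure: 48 hours, 5 concentrations, 96-well plates. GI50 = concentration required for 50% inhibition of growth. TGI is the concentration that stops growth completely.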

Experiments:
Assay in all cases: NCI-60 cell line screen, 48 h
HCT-116 colon = system: HCT-116 colon
OVCAR-4 ovarian = system: OVCAR-4 ovarian
SF-295 CNS = system: SF-295 CNS
DU-145 prostate = system: DU-145 prostate
NCI/ADR-RES ovarian = system: NCI/ADR-RES ovarian
NCI-H23 lung = system: NCI-H23 lung
HCT-15 colon = system: HCT-15 colon
CAKI-1 renal = system: CAKI-1 renal

| Compound | TGI (HCT-116 colon) | TGI (OVCAR-4 ovarian) | TGI (SF-295 CNS) | TGI (DU-145 prostate) | TGI (NCI/ADR-RES ovarian) | TGI (NCI-H23 lung) | TGI (HCT-15 colon) | TGI (CAKI-1 renal) | GI50 (HCT-116 colon) | GI50 (OVCAR-4 ovarian) | GI50 (SF-295 CNS) | GI50 (DU-145 prostate) | GI50 (NCI/ADR-RES ovarian) | GI50 (NCI-H23 lung) | GI50 (HCT-15 colon) | GI50 (CAKI-1 renal) |
| --- | --- | --- | --- | --- | --- | --- | --- | --- | --- | --- | --- | --- | --- | --- | --- | --- |
| CCCOC(=O)C1C2CCC(O2)C1C(=O)O (configuration not stated) | > 100 µM | > 100 µM | > 100 µM | > 100 µM | > 100 µM | > 100 µM | > 100 µM | > 100 µM |  |  |  |  |  |  |  |  |
| O=C(Nc1cccc(C(F)(F)F)c1)c1cc2ccccc2cc1O | 10.1 µM | > 71.1 µM | 8.68 µM | > 100 µM | 9.34 µM | 8.14 µM | > 100 µM | 1.22 µM | 1150 nM | 2.04 µM | 2860 nM | 2220 nM | 2.17 µM | 0.67 µM | 2340 nM | 345 nM |
| Cc1cc2nc3c4ccc(Br)cc4n(CCN(C)C)c3nc2cc1C | 2.14 µM | 7.49 µM | 2.91 µM | 9.96 µM | 4.69 µM | 3.47 µM | 6.24 µM | 5.42 µM | 451 nM | 1.62 µM | 804 nM | 2960 nM | 0.609 µM | 1.5 µM | 751 nM | 1530 nM |
| COc1ccc(C(=O)c2cc3c(N)c(C(=O)Nc4cccc(OC)c4)sc3nc2C)cc1 | > 100 µM | > 100 µM | > 100 µM | > 100 µM | > 100 µM | > 100 µM | > 100 µM | > 100 µM | 368 nM | 3.01 µM | 601 nM | 523 nM | 0.515 µM | 1.7 µM | 479 nM | 694 nM |
| COc1cc(/C=N/NC(=O)c2ccccc2Nc2cccc(C(F)(F)F)c2)cc(OC)c1OC | 6.4 µM | 15.2 µM | 3.04 µM | 8.39 µM | 14.4 µM | 23.1 µM | 13.2 µM | 4.71 µM | 2480 nM | 3.37 µM | 471 nM | 2610 nM | 3.87 µM | 6.37 µM | 2850 nM | 1400 nM |
| COc1cc2c(cc1OCCCOc1ccc(-c3nc4ccc(N5CCN(C)CC5)cc4[nH]3)cc1)N=C[C@@H]1CCCN1C2=O | > 37 µM | 17.2 µM | < 0.0359 µM | 6.98 µM | 0.161 µM | < 0.01 µM | 42.8 µM | < 0.01 µM | < 10 nM | < 0.01 µM | < 10 nM | < 10 nM | < 0.017 µM | < 0.01 µM | < 21.2 nM | < 10 nM |
| C=CC(C)(O)CC/C=C(\CO)C(=O)OC1C(C)OC(O[C@](C)(C=C)CC/C=C(\CO)C(=O)O[C@H]2C[C@@]3(C(=O)OC4OC(CO)C(O)C(O)C4OC4OC(C)C(OC5OC(CO)C(O)C5O)C(OC5OC(CO)C(O)C(O)C5O)C4O)C(CC2(C)C)C2=CCC4[C@@]5(C)CC[C@H](OC6OC(COC7OC(C)C(O)C(O)C7OC7OCC(O)C(O)C7O)C(O)C(O)C6NC(C)=O)C(C)(C)C5CC[C@@]4(C)[C@]2(C)C[C@H]3O)C(O)C1O (some centres not stated) | 6.93 µM | 0.47 µM | 0.312 µM | 0.512 µM | 7.84 µM | 7.49 µM | 10.6 µM | 0.916 µM | 143 nM | 0.11 µM | 83 nM | 131 nM | 2.68 µM | 2.01 µM | 4720 nM | 196 nM |
| Nc1nc(N)c2c(n1)NC(c1sc(Cl)nc1Cl)CC(c1ccc3c(c1)OCO3)=N2 (configuration not stated) | 16.2 µM |  | 12.3 µM | 34.4 µM | 25.3 µM | 38.2 µM | 20 µM | > 100 µM | 3420 nM |  | 2210 nM | 8450 nM | 3.55 µM | 8.87 µM | 1070 nM | 3170 nM |
| Cc1ccccc1NC(=O)Cc1csc(N=Nc2c(O)[nH]c3ccccc23)n1 | > 100 µM | 62.7 µM | 38 µM | > 100 µM | > 100 µM | > 100 µM | > 100 µM | 37.6 µM |  |  |  |  |  |  |  |  |
| CC(C)NC(=O)OCc1c(COC(=O)NC(C)C)c(-c2cc[n+](COC(=O)C3CCCCC3)cc2)n2c1CCC2 | > 100 µM | > 100 µM | > 100 µM | > 100 µM | > 100 µM | > 100 µM | > 100 µM | > 100 µM |  |  |  |  |  |  |  |  |
| CC(=O)[C-](C(C)=O)c1ccccc1.CC(=O)[C-](C(C)=O)c1ccccc1.CC(=O)[C-](C(C)=O)c1ccccc1.[Cl-].[Zr+4] | > 100 µM | > 100 µM | > 100 µM |  |  | > 100 µM | > 100 µM | > 100 µM | > 100000 nM | > 100 µM | > 100000 nM |  |  | > 100 µM | > 100000 nM | > 100000 nM |
| CC(N1CCOCC1)C(O)(c1ccccc1)c1ccccn1 (configuration not stated) | > 100 µM | > 100 µM | > 100 µM | > 100 µM | > 100 µM | > 100 µM | > 100 µM | > 100 µM |  |  |  |  |  |  |  |  |
| COCCN1C(=O)C2c3[nH]c4ccccc4c3C3CCC(C(C)(C)C)CC3C2C1=O (configuration not stated) | 29.9 µM | 36.8 µM | 34.5 µM | 37.1 µM | 42.6 µM | 57.3 µM | 36.3 µM | 37.6 µM |  |  |  |  |  |  |  |  |
| O=Cc1ccc(N2CCN(c3ccc(C=O)cc3)CC2)cc1 | > 100 µM | > 100 µM | > 100 µM | > 100 µM | > 100 µM | > 100 µM | > 100 µM | 76.5 µM | 71500 nM | 5.68 µM | > 100000 nM | > 100000 nM | > 100 µM | > 100 µM | > 100000 nM | 10800 nM |
| O=S(=O)(O)SCCNCCCCCC1CCCCC1 | 10.2 µM | 32.3 µM | 16.4 µM | 12.1 µM | 41.3 µM | 27.5 µM | 24.5 µM | 35.4 µM |  |  |  |  |  |  |  |  |
| Nc1c(C(=O)Nc2cccc3ccccc23)sc2nc3c(cc12)C(=O)CCC3 | > 100 µM | > 51.7 µM |  | 8.71 µM |  | > 42.2 µM | > 100 µM | > 100 µM | 327 nM | 2.77 µM | 77.9 nM | 337 nM | 0.225 µM | 0.315 µM | 262 nM | 359 nM |
| Cc1cc(Nc2nc(-c3ccncc3)nc3ccccc23)n[nH]1 | > 100 µM | > 100 µM | > 100 µM | > 100 µM | > 100 µM |  | > 100 µM | > 100 µM | 1990 nM | 15.5 µM | 17400 nM | 24200 nM | 11.1 µM |  | 1770 nM | 580 nM |
| C/C(=N/O)c1ccc(Nc2cc(-n3ccnc3)c3ccccc3n2)cc1 | 38.9 µM |  | > 100 µM | > 100 µM | > 100 µM | > 100 µM | 37.3 µM | > 100 µM | 14600 nM |  | 15100 nM | 38100 nM | 42.9 µM | 42 µM | 14300 nM | 26600 nM |
| O=C(Cc1ccccc1)NN1C(=O)/C(=C\c2ccccc2O)SC1=Nc1ccccc1 | > 100 µM | > 100 µM | > 100 µM | > 100 µM | > 100 µM | > 100 µM | > 100 µM |  |  |  |  |  |  |  |  |  |
| CN(C(=O)CNC(=O)/C=C/c1cccc(Cl)c1)C1CCS(=O)(=O)CC1 | > 100 µM | > 100 µM | > 100 µM | > 100 µM | > 100 µM |  | > 100 µM | > 100 µM | 1520 nM | 5.9 µM | 5030 nM | 470 nM | > 100 µM |  | 819 nM | 3780 nM |
| NS(=O)(=O)c1ccc(NC(=O)c2cccc(NC3=C(Cl)C(=O)N(Cc4ccccc4)C3=O)c2)cc1 | 43.4 µM | > 100 µM | 22.5 µM | 25.1 µM |  |  | 38.8 µM | 25.9 µM | 13900 nM | 35.7 µM | 5590 nM | 11100 nM |  |  | 15100 nM | 12500 nM |
| COc1ccc2c(c1)/C(=N/OC(C)=O)c1c-2cnc2ccccc12 | 48.1 µM | 83.6 µM |  | > 100 µM | > 100 µM | > 100 µM | > 100 µM |  | 21000 nM | 31.7 µM |  | 36000 nM | 36.9 µM | 46.6 µM | 34900 nM |  |
| CC1=C(N2CC2)C(=O)c2ccccc2C1=O | 12 µM | 7.36 µM | 2.48 µM | 0.276 µM | 3.14 µM |  | 3.52 µM | 1.79 µM |  |  |  |  |  |  |  |  |
| Cc1ccc(S(=NS(=O)(=O)c2ccc(C)cc2)c2ccc(C)cc2)cc1 | > 100 µM |  | > 100 µM | > 100 µM | > 100 µM | > 100 µM | > 100 µM |  |  |  |  |  |  |  |  |  |
| CCN(CC)Cc1cc(Nc2c3ccccc3nc3cc(Cl)ccc23)ccc1O | 2.67 µM | 2.43 µM | 4.86 µM | 9.69 µM |  |  | 17 µM | 4.73 µM | 967 nM | 1.18 µM | 1900 nM | 2630 nM |  |  | 3490 nM | 1870 nM |
| O=C(/C=C/c1ccc([N+](=O)[O-])cc1)c1cccc(Nc2nc(Nc3ccccc3)nc(Nc3ccccc3)n2)c1 |  | > 100 µM | > 100 µM | > 100 µM | > 100 µM | 98.3 µM | > 100 µM | > 100 µM |  | 22.1 µM | 9810 nM | 28200 nM | 18.2 µM | 17.5 µM | 17700 nM | 25200 nM |
